Experimental data published in patent US4228187A, “Alkyl and cycloalkylthiophenylalkylaminoalkanols, their salts and the preparation thereof” (priority 1973, dated 1980).

Legend:
guinea pig atria's = assay: Protective activity against anoxia (guinea pig atria); parameters: key: scale: + = 10 to 20% increase in survival time; conditions: increase in survival time
Source text: (5) guinea pig atria's;
+ = increase in survival time of 10 to 20%

Hist. = assay: Antispasmodic activity, Hist.
Ac.chol. = assay: Antispasmodic activity, Ac.chol.
DL50 mouse p.o. = conditions: in vivo, po, limits of reliability (p : 0.95) in brackets
Source text: (1) the limits of reliability (p : 0.95) are given in brackets.

BaCl2 = assay: Antispasmodic activity, BaCl2
[1] = test system: spontaneously hypertensive rat; assay: Antihypertensive activity (spontaneously hypertensive rat); format: in vivo; conditions: 15 mg/kg per os
Experimental: (3) spontaneously hypertensive rat; 15 mg/kg per os;
± reduction of systolic pressure up to 10 mm of Hg
+ reduction of systolic pressure of 10 to 20 mm Hg
++ reduction of systolic pressure of at least 20 mm of Hg

[2] = test system: peripheral vasodilatatory activity; assay: Vasodilatory effect after intraarterial injection in dog; format: in vivo
Experimental: (1) intraarterial injection in dog (5 animals) 10, 20 and 30 μg/kg.
(2) maximum vasodilatory effect in mm of Hg.
(3) and (4) expressed in seconds.

| Molecule | Protective activity against anoxia (guinea pig atria's) | Antispasmodic activity CE 100, Hist. (Hist.) [μ g γ 60 ml] | Antispasmodic activity CE 100, Ac.chol. (Ac.chol.) [μ g γ 60 ml] | LD50 (DL50 mouse p.o.) [mg/kg] | Antispasmodic activity CE 100, BaCl2 (BaCl2) [μ g γ 60 ml] | other results |
| --- | --- | --- | --- | --- | --- | --- |
| CCCCNC(C)C(O)c1ccc(SCC)cc1 (stereo not shown) [No 12] | 0 | 1000 | 500 | 312 | 1000 |  |
| CCCCCCCCNC(C)C(O)c1ccc(SCC(C)C)cc1 (stereo not shown) [No 26] | 0 | 200 | 200 | > 4000 | 200 |  |
| CCCCCCCCNC(CC)C(O)c1ccc(SC)cc1 (stereo not shown) [No 18] | 0 | 200 | 200 | ~3500 | 500 | Anti-hypertensive activity [1]: 0 |
| CC(C)Sc1ccc(C(O)C(C)NC(C)(C)C)cc1 (stereo not shown) [No 5] | 0 | > 1000 | 1000 |  | 1000 |  |
| CC(Cc1ccccc1)NC(C)C(O)c1ccc(SC(C)C)cc1 (stereo not shown) [No 35] |  | 200 | 500 | 2100 | 500 | Anti-hypertensive activity [1]: ± (reduction of systolic pressure up to 10 mm of Hg) |
| CCCCNC(C)C(O)c1ccc(SCC(C)C)cc1 (stereo not shown) [No 25] | 0 | 200 | 100 | 1350 | 200 |  |
| CC(C(O)c1ccc(SC2CCCCC2)cc1)N1CCCCC1 (stereo not shown) [No 33] |  | > 1000 | > 1000 |  | > 1000 |  |
| CCC(NC(C)C)C(O)c1ccc(SC(C)C)cc1 (stereo not shown) [No 7] | 0 | 1000 | 200 |  | 1000 |  |
| CCC(NC(C)C)C(O)c1ccc(SC2CCCCC2)cc1 (stereo not shown) [No 27] |  | 500 | 200 |  | 200 |  |
| CCCCNC(CC)C(O)c1ccc(SCC)cc1 (stereo not shown) [No 19] | 0 | 1000 | 1000 | 640 | 500 |  |
| CC(C)CSc1ccc(C(O)C(C)NC(C)C)cc1 (stereo not shown) [No 22] | 0 | 500 | 1000 | 1280 | 500 |  |
| CCC(C)NC(C)C(O)c1ccc(SC(C)C)cc1 (stereo not shown) [No 4] | 0 | 1000 | 1000 | 520 | 500 |  |
| CCCCCCCCNC(C)C(O)c1ccc(SC)cc1 (stereo not shown) [No 11] | 0 | 200 | 200 | 970 | 100 | Anti-hypertensive activity [1]: ++ (reduction of systolic pressure of at least 20 mm of Hg) |
| CC(NC(C)(C)C)C(O)c1ccc(SC2CCCCC2)cc1 (stereo not shown) [No 21] |  | 500 | 100 |  | 500 | Anti-hypertensive activity [1]: 0 |
| CCCCCCCCNC(CC)C(O)c1ccc(SC(C)C)cc1 (stereo not shown) [No 8] | 0 | 500 | 500 | > 4000 | 100 | Anti-hypertensive activity [1]: 0 |
| CCC(C(O)c1ccc(SC2CCCCC2)cc1)N1CCCCC1 (stereo not shown) [No 34] |  | 1000 | 100 |  | 200 |  |

| Molecule | Protective activity against anoxia (guinea pig atria's) | Antispasmodic activity CE 100, Hist. (Hist.) [μ g γ 60 ml] | Antispasmodic activity CE 100, Ac.chol. (Ac.chol.) [μ g γ 60 ml] | LD50 (DL50 mouse p.o.) [mg/kg] | Antispasmodic activity CE 100, BaCl2 (BaCl2) [μ g γ 60 ml] | other results |
| --- | --- | --- | --- | --- | --- | --- |
| CCC(C)NC(CC)C(O)c1ccc(SC(C)C)cc1 (stereo not shown) [No 9] | ++ (increase in survival time of more than 25%) | 1000 | 200 |  | 500 |  |
| CCCCNC(CC)C(O)c1ccc(SC(C)C)cc1 (stereo not shown) [No 6] | 0 | 500 | 100 | > 1000 | 1000 |  |
| CCC(C)NC(C)C(O)c1ccc(SCC(C)C)cc1 (stereo not shown) [No 23] | 0 | 200 | 200 |  | 500 |  |
| CCCCNC(C)C(O)c1ccc(SC)cc1 (stereo not shown) [No 10] | + (increase in survival time of 10 to 20%) | 1000 | 500 | ~100 | 1000 | Anti-hypertensive activity [1]: 0 |
| CC(C)CSc1ccc(C(O)C(C)NC(C)(C)C)cc1 (stereo not shown) [No 24] |  | 200 | 1000 |  | 500 |  |
| CCCCCCCCNC(C)C(O)c1ccc(SC2CCCCC2)cc1 (stereo not shown) [No 15] |  | 1000 | 500 | ~5000 | 1000 | Anti-hypertensive activity [1]: ++ (reduction of systolic pressure of at least 20 mm of Hg) |
| CCCCNC(C)C(O)c1ccc(SC2CCCCC2)cc1 (stereo not shown) [No 14] |  | 500 | 100 |  | 200 |  |
| 1-(4-methylthiophenyl)-2-n-octylaminopropanol [No 11] | 0 | 1000 | 1000 |  | > 1000 |  |
| CC(C)NC(C)C(O)c1ccc(SC(C)C)cc1 (stereo not shown) [No 3] |  |  |  | 630 |  |  |
| CCCCCCCNC(C)C(O)c1ccc(SC(C)C)cc1 (stereo not shown) [No 29] |  |  |  | ~2400 |  |  |
| CCCCNC(C)C(O)c1ccc(SC(C)C)cc1 (stereo not shown) [No 1] | 0 | 500 | 1000 | 680 | 500 |  |
| CCCCCCCCNC(C)C(O)c1ccc(SC2CCCC2)cc1 (stereo not shown) [No 32] |  |  |  | > 4000 |  | Anti-hypertensive activity [1]: ++ (reduction of systolic pressure of at least 20 mm of Hg) |
| CCCCCCNC(C)C(O)c1ccc(SC(C)C)cc1 (stereo not shown) [No 28] |  |  |  | 1450 |  |  |
| CCC(C)NC(C)C(O)c1ccc(SC2CCCCC2)cc1 (stereo not shown) [No 16] |  | 500 | 200 |  | 200 |  |
| COc1ccc(Cc2nccc3cc(OC)c(OC)cc23)cc1OC [papaverine, reference compound] |  |  |  |  |  | Amplitude (maximum vasodilatory effect) ([2]; 10 μg/kg): 40 mm of Hg; Duration of effect ([2]; 10 μg/kg): 43 s; Amplitude (maximum vasodilatory effect) ([2]; 20 μg/kg): 51 mm of Hg; Duration of effect ([2]; 20 μg/kg): 45 s; Amplitude (maximum vasodilatory effect) ([2]; 30 μg/kg): 54 mm of Hg; Duration of effect ([2]; 30 μg/kg): 47 s |
